# Laboratory results as given in ChEMBL document CHEMBL4334525, “Alopecuroides A-E, Matrine-Type Alkaloid Dimers from the Aerial Parts of Sophora alopecuroides” (J Nat Prod, 2019).
# Active and inactive are the calls of the source. No cut-off for these calls is given here.
# Tests used:
# [1] = system: RAW264.7; experiment: Cytotoxicity against mouse RAW264.7 cells at 50 uM after 24 hrs by MTT assay; format: cell-based; conditions: raw264.7, 24 h
# [2] = system: RAW264.7; experiment: Cytotoxicity against mouse RAW264.7 cells at 50 uM after 24 hrs in presence of 1 ug/ml LPS by MTT assay; format: cell-based; conditions: raw264.7, 24 h
# [3] = system: RAW264.7; experiment: Antiinflammatory activity against LPS-stimulated mouse RAW264.7 cells assessed as inhibition of LPS-induced TNFalpha production by measuring TNFalpha level at 50 uM preincubated for 2 hrs followed by LPS treatment and measured after 16 hrs by ELISA (reference value: 100 +/- 0.45%); format: functional
# [4] = system: RAW264.7; experiment: Antiinflammatory activity against LPS-stimulated mouse RAW264.7 cells assessed as inhibition of LPS-induced IL-6 production by measuring IL-6 level at 50 uM preincubated for 2 hrs followed by LPS treatment and measured after 16 hrs by ELISA (reference value: 100 +/- 1.33%); format: functional; set-up: scale not given: the % may be the effect or the level left
SMILES,Activity [1],Activity [2],TNFalpha level (% of LPS control) [3],Activity [4]
O=C1CCC[C@@H]2[C@H]3CC([C@H]4CC[C@H]5CN6C(=O)CCC[C@@H]6[C@H]6CCCN4[C@@H]56)=CN4CCC[C@@H](CN12)[C@@H]34,Non-Toxic,Non-Toxic,49.59%,73.9%
O=C1CCC[C@@H]2[C@H]3CCCN4CC([C@@H]5CC[C@H]6[C@@H]7[C@@H](CCCN75)CN5C(=O)CCC[C@H]65)=C[C@@H](CN12)[C@@H]34,Non-Toxic,Non-Toxic,70.86%,60.08%
N#C[C@H]1N2CCC[C@H]3[C@@H]2[C@H](CN2C(=O)CCC[C@H]32)[C@H]2O[C@]21[C@@H]1CC[C@H]2[C@@H]3[C@@H](CCCN31)CN1C(=O)CCC[C@H]21,Non-Toxic,Non-Toxic,96.64%,67.85%
O=C1CCC[C@@H]2[C@H]3CCCN[C@H]3[C@H](CCC[C@H]3C[C@H]4CN5C(=O)CCC[C@@H]5[C@H]5CCCN(C3)[C@@H]45)CN12,Non-Toxic,Non-Toxic,69.14%,inactive
N#C[C@@H]1N2CCC[C@H]3CN4C(=O)CCC[C@@H]4[C@H]([C@H]32)[C@@H]2O[C@]12[C@H]1CC[C@H]2CN3C(=O)CCC[C@@H]3[C@H]3CCCN1[C@@H]23,Non-Toxic,Non-Toxic,50.05%,52.87%
O=C1CCC[C@@H]2[C@H]3CCCN4CCC[C@@H](CN12)[C@@H]34 [MATRINE],,,72.48%,65.49%
